Source: PubChem BioAssay (NCI)
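All cell lines were grown in 96-well plates and treated with compound for 48 hours. The concentration for 50% growth inhibition is given as GI50. Definition used: TGI = concentration required for complete inhibition of growth.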

Key:
Experiment in all cases: NCI-60 cell line screen, 48 h
786-0 renal = tested on: 786-0 renal
ACHN renal = tested on: ACHN renal
BT-549 breast = tested on: BT-549 breast
CAKI-1 renal = tested on: CAKI-1 renal
CCRF-CEM leukemia = tested on: CCRF-CEM leukemia
COLO 205 colon = tested on: COLO 205 colon
DU-145 prostate = tested on: DU-145 prostate
EKVX NSCLC = tested on: EKVX NSCLC
HCC-2998 colon = tested on: HCC-2998 colon
HCT-116 colon = tested on: HCT-116 colon
HCT-15 colon = tested on: HCT-15 colon
HL-60(TB) leukemia = tested on: HL-60(TB) leukemia
HOP-62 NSCLC = tested on: HOP-62 NSCLC
HOP-92 NSCLC = tested on: HOP-92 NSCLC
HS 578T breast = tested on: HS 578T breast
HT29 colon = tested on: HT29 colon
IGROV1 ovarian = tested on: IGROV1 ovarian
K-562 leukemia = tested on: K-562 leukemia
KM12 colon = tested on: KM12 colon
LOX IMVI melanoma = tested on: LOX IMVI melanoma
M14 melanoma = tested on: M14 melanoma
MALME-3M melanoma = tested on: MALME-3M melanoma
MCF7 breast = tested on: MCF7 breast
MDA-MB-435 = tested on: MDA-MB-435
MDA-MB-468 breast = tested on: MDA-MB-468 breast
MOLT-4 leukemia = tested on: MOLT-4 leukemia
NCI-H23 lung = tested on: NCI-H23 lung
NCI-H460 lung = tested on: NCI-H460 lung
NCI-H522 lung = tested on: NCI-H522 lung
NCI/ADR-RES ovarian = tested on: NCI/ADR-RES ovarian
OVCAR-3 ovarian = tested on: OVCAR-3 ovarian
OVCAR-4 ovarian = tested on: OVCAR-4 ovarian
OVCAR-5 ovarian = tested on: OVCAR-5 ovarian
OVCAR-8 ovarian = tested on: OVCAR-8 ovarian
RPMI-8226 leukemia = tested on: RPMI-8226 leukemia
RXF 393 renal = tested on: RXF 393 renal
SF-268 CNS = tested on: SF-268 CNS
SF-539 CNS = tested on: SF-539 CNS
SK-MEL-28 melanoma = tested on: SK-MEL-28 melanoma
SK-MEL-5 melanoma = tested on: SK-MEL-5 melanoma
SK-OV-3 ovarian = tested on: SK-OV-3 ovarian
SN12C renal = tested on: SN12C renal
SNB-19 CNS = tested on: SNB-19 CNS
SR leukemia = tested on: SR leukemia
SW-620 colon = tested on: SW-620 colon
T-47D breast = tested on: T-47D breast
TK-10 renal = tested on: TK-10 renal
UACC-257 melanoma = tested on: UACC-257 melanoma
UACC-62 melanoma = tested on: UACC-62 melanoma
A498 renal = tested on: A498 renal
A549 NSCLC = tested on: A549 NSCLC
MDA-MB-231 breast = tested on: MDA-MB-231 breast
NCI-H226 lung = tested on: NCI-H226 lung
PC-3 prostate = tested on: PC-3 prostate
SF-295 CNS = tested on: SF-295 CNS
SK-MEL-2 melanoma = tested on: SK-MEL-2 melanoma
SNB-75 CNS = tested on: SNB-75 CNS
U251 CNS = tested on: U251 CNS
UO-31 renal = tested on: UO-31 renal

## COc1cc2cc(C(=O)N3C[C@@H](CCl)c4c3cc(OC(=O)N3CCN(C)[C@@H]5CSSC[C@H]53)c3ccccc43)[nH]c2c(OC)c1OC
786-0 renal
  GI50: 16.3 nM
  TGI: 69.3 nM
ACHN renal
  GI50: < 7.85 nM
  TGI: 29.3 nM
BT-549 breast
  GI50: 15.4 nM
  TGI: 55.9 nM
CAKI-1 renal
  GI50: 27.3 nM
  TGI: 586 nM
CCRF-CEM leukemia
  GI50: 26.3 nM
  TGI: 2000 nM
COLO 205 colon
  GI50: 49.2 nM
  TGI: 176 nM
DU-145 prostate
  GI50: < 7.85 nM
  TGI: 9010 nM
EKVX NSCLC
  GI50: 18.2 nM
  TGI: 133 nM
HCC-2998 colon
  GI50: 15.4 nM
  TGI: 37.8 nM
HCT-116 colon
  GI50: 18.1 nM
  TGI: 8510 nM
HCT-15 colon
  GI50: 21.8 nM
  TGI: 554 nM
HL-60(TB) leukemia
  GI50: < 7.85 nM
  TGI: 110 nM
HOP-62 NSCLC
  GI50: 12.3 nM
  TGI: 65.4 nM
HOP-92 NSCLC
  GI50: 26.7 nM
  TGI: 824 nM
HS 578T breast
  GI50: 159 nM
  TGI: 668 nM
HT29 colon
  GI50: 34.1 nM
  TGI: 876 nM
IGROV1 ovarian
  GI50: 58.4 nM
  TGI: 266 nM
K-562 leukemia
  GI50: 24.6 nM
  TGI: 78500 nM
KM12 colon
  GI50: 43.7 nM
  TGI: 3640 nM
LOX IMVI melanoma
  GI50: 12.2 nM
  TGI: 43.5 nM
M14 melanoma
  GI50: 10.5 nM
  TGI: 26.2 nM
MALME-3M melanoma
  GI50: 13.7 nM
  TGI: 33.3 nM
MCF7 breast
  GI50: < 7.85 nM
  TGI: 178 nM
MDA-MB-435
  GI50: 27.4 nM
  TGI: 138 nM
MDA-MB-468 breast
  GI50: 11.5 nM
  TGI: 30.8 nM
MOLT-4 leukemia
  GI50: < 7.85 nM
  TGI: 215 nM
NCI-H23 lung
  GI50: < 7.85 nM
  TGI: 13.8 nM
NCI-H460 lung
  GI50: < 7.85 nM
  TGI: 791 nM
NCI-H522 lung
  GI50: 12.4 nM
  TGI: 48 nM
NCI/ADR-RES ovarian
  GI50: 11.1 nM
  TGI: 52.8 nM
OVCAR-3 ovarian
  GI50: 52.7 nM
  TGI: 578 nM
OVCAR-4 ovarian
  GI50: 160 nM
  TGI: 799 nM
OVCAR-5 ovarian
  GI50: 36.3 nM
  TGI: 380 nM
OVCAR-8 ovarian
  GI50: 8.62 nM
  TGI: 68 nM
RPMI-8226 leukemia
  GI50: 33.9 nM
  TGI: 458 nM
RXF 393 renal
  GI50: 9.53 nM
  TGI: 20.1 nM
SF-268 CNS
  GI50: 14.8 nM
  TGI: 1350 nM
SF-539 CNS
  GI50: 9.97 nM
  TGI: 29.3 nM
SK-MEL-28 melanoma
  GI50: 14.5 nM
  TGI: 31 nM
SK-MEL-5 melanoma
  GI50: 13.2 nM
  TGI: 24.2 nM
SK-OV-3 ovarian
  GI50: 12.4 nM
  TGI: 44.3 nM
SN12C renal
  GI50: 17.1 nM
  TGI: 831 nM
SNB-19 CNS
  GI50: 16.4 nM
  TGI: 1090 nM
SR leukemia
  GI50: < 7.85 nM
  TGI: 61.3 nM
SW-620 colon
  GI50: 58.1 nM
  TGI: 78500 nM
T-47D breast
  GI50: 50.2 nM
  TGI: 553 nM
TK-10 renal
  GI50: 127 nM
  TGI: 2400 nM
UACC-257 melanoma
  GI50: 23.9 nM
  TGI: 78.4 nM
UACC-62 melanoma
  GI50: 15.1 nM
  TGI: 87.9 nM

## COc1ccc(Cc2nn(CC(=O)N/N=C/c3ccc(F)cc3)c(=O)c3c(C)noc23)cc1
786-0 renal
  GI50: 2120 nM
  TGI: 4630 nM
A498 renal
  GI50: 1830 nM
  TGI: 3730 nM
A549 NSCLC
  GI50: 3020 nM
  TGI: 10100 nM
ACHN renal
  GI50: 1950 nM
  TGI: 3830 nM
BT-549 breast
  GI50: 12200 nM
  TGI: 35700 nM
CAKI-1 renal
  GI50: 2020 nM
  TGI: 4620 nM
CCRF-CEM leukemia
  GI50: 9650 nM
  TGI: > 100000 nM
COLO 205 colon
  GI50: 8300 nM
  TGI: 35200 nM
DU-145 prostate
  GI50: 5870 nM
  TGI: 18800 nM
EKVX NSCLC
  GI50: 4390 nM
  TGI: 21400 nM
HCC-2998 colon
  GI50: 5460 nM
  TGI: 19700 nM
HCT-116 colon
  GI50: 2470 nM
  TGI: 6770 nM
HCT-15 colon
  GI50: 9270 nM
  TGI: 89300 nM
HL-60(TB) leukemia
  GI50: 68800 nM
  TGI: > 100000 nM
HOP-62 NSCLC
  GI50: 1930 nM
  TGI: 4040 nM
HOP-92 NSCLC
  GI50: 2340 nM
  TGI: 6970 nM
HS 578T breast
  GI50: 3190 nM
  TGI: 15100 nM
HT29 colon
  GI50: 10900 nM
  TGI: 25500 nM
IGROV1 ovarian
  GI50: 7580 nM
  TGI: 22800 nM
K-562 leukemia
  GI50: 31400 nM
  TGI: > 100000 nM
KM12 colon
  GI50: 26500 nM
  TGI: > 100000 nM
LOX IMVI melanoma
  GI50: 4650 nM
  TGI: 22000 nM
M14 melanoma
  GI50: 8670 nM
  TGI: 38000 nM
MALME-3M melanoma
  GI50: 3630 nM
  TGI: 15000 nM
MCF7 breast
  GI50: 8440 nM
  TGI: 35100 nM
MDA-MB-231 breast
  GI50: 5660 nM
  TGI: 19500 nM
MDA-MB-435
  GI50: 9520 nM
  TGI: 31300 nM
MDA-MB-468 breast
  GI50: 3870 nM
  TGI: 17700 nM
MOLT-4 leukemia
  GI50: 22600 nM
  TGI: > 100000 nM
NCI-H226 lung
  GI50: 1800 nM
  TGI: 4610 nM
NCI-H23 lung
  GI50: 6720 nM
  TGI: 20900 nM
NCI-H460 lung
  GI50: 3270 nM
  TGI: 11300 nM
NCI-H522 lung
  GI50: 10400 nM
  TGI: 31200 nM
NCI/ADR-RES ovarian
  GI50: 4030 nM
  TGI: 17200 nM
OVCAR-3 ovarian
  GI50: 3440 nM
  TGI: 11200 nM
OVCAR-4 ovarian
  GI50: 1800 nM
  TGI: 3470 nM
OVCAR-5 ovarian
  GI50: 7180 nM
  TGI: 25100 nM
OVCAR-8 ovarian
  GI50: 6960 nM
  TGI: 60600 nM
PC-3 prostate
  GI50: 5430 nM
  TGI: 23400 nM
RPMI-8226 leukemia
  GI50: 9010 nM
  TGI: > 100000 nM
RXF 393 renal
  GI50: 2420 nM
  TGI: 6470 nM
SF-268 CNS
  GI50: 5810 nM
  TGI: 36900 nM
SF-295 CNS
  GI50: 2070 nM
  TGI: 4860 nM
SF-539 CNS
  GI50: 10500 nM
  TGI: 22800 nM
SK-MEL-2 melanoma
  GI50: 12100 nM
  TGI: 29500 nM
SK-MEL-28 melanoma
  GI50: 6900 nM
  TGI: 21800 nM
SK-MEL-5 melanoma
  GI50: 12800 nM
  TGI: 33400 nM
SK-OV-3 ovarian
  GI50: 1990 nM
  TGI: 3970 nM
SN12C renal
  GI50: 2360 nM
  TGI: 6080 nM
SNB-19 CNS
  GI50: 4480 nM
  TGI: 20400 nM
SNB-75 CNS
  GI50: 2000 nM
  TGI: 4490 nM
SR leukemia
  GI50: 16100 nM
  TGI: > 100000 nM
SW-620 colon
  GI50: 5590 nM
  TGI: 22900 nM
T-47D breast
  GI50: 2240 nM
  TGI: 5880 nM
TK-10 renal
  GI50: 2400 nM
  TGI: 6390 nM
U251 CNS
  GI50: 2650 nM
  TGI: 8070 nM
UACC-257 melanoma
  GI50: 6330 nM
  TGI: 29100 nM
UACC-62 melanoma
  GI50: 8630 nM
  TGI: 25100 nM
UO-31 renal
  GI50: 1790 nM
  TGI: 3840 nM
